This note sets out measurements from patent publication US20220267380A1, “Glycopeptides Increasing Lipid Synthesis” (TFCHEM, priority 2019, published 2022).

The test system of test [1] is normal human dermal fibroblasts (NHDF). Nature of the test: Identification of biological processes involved (DAVID / Gene Ontology functional annotation of modulated genes). To be noted: 10 mg/ml, p-value≤0.05. The text has this:
Gene Ontology database has been more specifically used for the data interpretation. DAVID functional annotation part was used to cluster modulated genes into significant biological processes. […] DAVID database uses the Gene Ontology consortium (http://www.geneontology.org) vocabularies (GO terms) to describe gene products in terms of their associated biological processes. Among them, only biological processes with p-value≤0.05 were taken into account.
The gene modulations of NHDF treated with compound 1 (10 mg/ml), compound 3 (10 mg/ml) and compound 4 (10 mg/ml) vs control were analysed to cluster modulated genes into significant biological processes (p-value≤0.05).

Test [2] shares this test system. The test is described as follows: Microscopic observations of human dermal fibroblasts in culture (formation of lipid vesicles). To be noted: 48 h, vs untreated cells. The class given is cell-based. Here is the method:
Normal human dermal fibroblasts (NHDF) were grown with Dulbecco's Modified Eagle
Medium (DMEM) supplemented with Fetal Calf Serum (FCS) 10%, antibiotics (Penicillin 50 U/ml—Streptomycin 50 μg/ml) and L-Glutamine 2 mM final. Cells were grown in 37° C. and 5% CO2 incubator.
Fibroblasts were seeded in 24-well plates and cultured in culture medium for 24 hours. The medium was then replaced by assay medium and cells were incubated for further 24 hours. For the assay, the medium was replaced by assay medium containing or not (control) the test compound at different concentrations. After 48 h the morphological observations were evaluated.

As for `N[C@@H](CCCCNCC(F)(F)[C@]1(O)O[C@H](CO)[C@H](O)[C@H](O)[C@H]1O)C(=O)O` [Compound 3], the “main biological processes involved” value in test [1] was “the lipid metabolic process and the cholesterol biosynthetic process”.
For `C[C@H](NC(=O)[C@H](C)NC(=O)[C@@H](N)CCCCNCC(F)(F)[C@]1(O)O[C@H](CO)[C@H](O)[C@H](O)[C@H]1O)C(=O)O` [Compound 1], in test [1], the “main biological processes involved” value is “the lipid metabolic process and the cholesterol biosynthetic process”. In addition, the “morphological observation of fibroblasts” value in test [2] (10 mg/ml) was “no effect”; in test [2] (20 mg/ml), “induced the formation of lipid vesicles in fibroblasts”.
Regarding `CC(=O)N(CCCC[C@H](N)C(=O)O)CC(F)(F)[C@]1(O)O[C@H](CO)[C@H](O)[C@H](O)[C@H]1O` [Compound 4], the “main biological processes involved” value in test [1] is “the lipid metabolic process and the cholesterol biosynthetic process but also the ceramide metabolic process”. For the same molecule, the “morphological observation of fibroblasts” value in test [2] (13 mg/ml) was “induces the formation of lipid vesicles in fibroblasts and cell swelling”.
